This passage reports IC50 results from patent US8148391B2 (Cephalon, Inc., priority 2006, dated 2012).

In experiment [1] the target is T1, c-Met (cytoplasmic domain) (Homo sapiens, UniProt P08581).
T1 construct: 10 ng/mL c-Met (cytoplasmic domain, Invitrogen Corporation #PV3143); purchased Invitrogen Corporation PV3143
Description: c-Met Kinase Assay (same methods as for ALK, with modifications). In kind it is biochemical. The conditions noted are these: 1 μM ATP (Km level), 10 ng/mL c-Met; read-out: cMet Activity (c-Met kinase inhibition, IC50 class). The gist of the method: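 Wells were coated with 10 μg/mL phospholipase C-γ substrate in TBS, and reactions were started with 10 ng/mL c-Met cytoplasmic domain and run at 37° C for 15 minutes. Phosphorylated product was detected with Eu-N1-labeled PT66 antibody. IC50 values came from sigmoidal variable-slope fits of percent inhibition versus log compound concentration.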

The target in experiment [2] is T2, baculovirus-expressed ALK (Homo sapiens, UniProt Q9UM73).
T2 construct: host or cells: baculovirus expression system
T2 sequence (Q9UM73 19-1620): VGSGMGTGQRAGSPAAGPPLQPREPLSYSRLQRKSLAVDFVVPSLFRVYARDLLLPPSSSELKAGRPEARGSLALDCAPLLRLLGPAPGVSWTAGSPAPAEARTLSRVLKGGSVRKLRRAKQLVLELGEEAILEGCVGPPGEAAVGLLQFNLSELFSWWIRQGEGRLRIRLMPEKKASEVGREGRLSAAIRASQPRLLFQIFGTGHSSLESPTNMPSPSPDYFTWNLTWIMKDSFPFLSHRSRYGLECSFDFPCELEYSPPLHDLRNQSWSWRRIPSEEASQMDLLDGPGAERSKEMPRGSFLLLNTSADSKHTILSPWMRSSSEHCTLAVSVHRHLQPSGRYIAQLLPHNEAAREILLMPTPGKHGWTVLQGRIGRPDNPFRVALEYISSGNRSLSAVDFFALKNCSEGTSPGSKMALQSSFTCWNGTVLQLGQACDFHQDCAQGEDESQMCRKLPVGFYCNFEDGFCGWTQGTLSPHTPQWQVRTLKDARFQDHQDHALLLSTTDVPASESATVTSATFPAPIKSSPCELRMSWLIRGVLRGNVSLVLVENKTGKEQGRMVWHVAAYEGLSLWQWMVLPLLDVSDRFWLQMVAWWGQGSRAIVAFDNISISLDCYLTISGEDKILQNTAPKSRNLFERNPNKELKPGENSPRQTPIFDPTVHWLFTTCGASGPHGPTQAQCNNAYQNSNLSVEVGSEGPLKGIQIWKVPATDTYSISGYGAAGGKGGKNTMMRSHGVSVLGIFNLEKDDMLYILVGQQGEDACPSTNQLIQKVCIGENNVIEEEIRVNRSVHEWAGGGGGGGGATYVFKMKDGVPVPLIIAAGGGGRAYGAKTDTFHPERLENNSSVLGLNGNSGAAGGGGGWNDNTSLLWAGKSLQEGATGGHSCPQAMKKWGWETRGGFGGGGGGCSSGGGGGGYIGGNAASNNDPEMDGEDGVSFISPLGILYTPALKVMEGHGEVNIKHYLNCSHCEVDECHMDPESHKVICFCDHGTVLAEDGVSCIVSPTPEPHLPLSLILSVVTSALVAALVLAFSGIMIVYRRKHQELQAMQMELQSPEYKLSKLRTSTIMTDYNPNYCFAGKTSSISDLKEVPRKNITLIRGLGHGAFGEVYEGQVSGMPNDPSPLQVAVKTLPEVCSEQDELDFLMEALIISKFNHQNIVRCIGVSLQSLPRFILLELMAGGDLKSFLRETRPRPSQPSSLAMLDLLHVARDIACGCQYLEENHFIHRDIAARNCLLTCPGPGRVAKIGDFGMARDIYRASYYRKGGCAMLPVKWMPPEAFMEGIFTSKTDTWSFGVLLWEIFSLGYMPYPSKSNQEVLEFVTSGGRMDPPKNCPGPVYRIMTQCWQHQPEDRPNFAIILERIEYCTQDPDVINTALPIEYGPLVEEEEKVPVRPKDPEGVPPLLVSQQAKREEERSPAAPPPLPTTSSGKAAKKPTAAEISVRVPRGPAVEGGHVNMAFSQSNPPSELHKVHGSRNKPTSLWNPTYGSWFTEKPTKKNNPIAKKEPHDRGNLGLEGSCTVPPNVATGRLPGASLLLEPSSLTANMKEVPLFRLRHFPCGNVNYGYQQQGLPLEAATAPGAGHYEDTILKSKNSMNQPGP
Description: ALK Kinase Assay (ELISA-type, time-resolved fluorescence). In kind it is biochemical. The note with it: 1 μM ATP (Km level), 30 ng/ml ALK, 37° C., 15 minutes; read-out: ALK Activity (ALK kinase inhibition, IC50 class). The procedure, abridged:
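Substrate coating: phospholipase C-γ, 10 μg/mL in TBS. Kinase step: 30 ng/ml ALK, 15 min, 37° C. Detection and analysis: Eu-N1 PT66 antibody, with IC50 fitted as a sigmoidal variable-slope dose-response curve.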
(In an ELISA, binding on a coated surface is turned into a signal by an enzyme label.)

Each structure is given as a SMILES string.

T1 sequence (P08581 956-1390 limits assumed): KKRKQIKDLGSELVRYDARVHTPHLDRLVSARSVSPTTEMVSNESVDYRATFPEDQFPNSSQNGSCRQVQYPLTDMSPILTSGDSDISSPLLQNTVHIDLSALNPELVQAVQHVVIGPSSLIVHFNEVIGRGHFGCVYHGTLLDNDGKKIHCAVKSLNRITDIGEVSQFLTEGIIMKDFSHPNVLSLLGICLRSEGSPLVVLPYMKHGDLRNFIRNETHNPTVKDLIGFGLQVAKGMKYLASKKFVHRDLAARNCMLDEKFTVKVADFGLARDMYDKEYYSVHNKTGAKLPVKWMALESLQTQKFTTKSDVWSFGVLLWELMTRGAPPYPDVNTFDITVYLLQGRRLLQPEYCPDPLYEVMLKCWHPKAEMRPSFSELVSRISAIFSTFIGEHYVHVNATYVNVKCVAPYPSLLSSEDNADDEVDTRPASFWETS

Regarding `COCCN1CCc2cc(Nc3ncc(Cl)c(Nc4ccc(C(N)=O)cc4OC)n3)c(OC)cc2CC1` [Example 1156, 4-{5-Chloro-2-[8-methoxy-3-(2-methoxy-ethyl)-2,3,4,5-tetrahydro-1H-benzo[d]azepin-7-ylamino]-pyrimidin-4-ylamino}-3-methoxy-benzamide], the IC50 in experiment [1] is above 10 µM; in experiment [2] it was below 0.1 µM.

Regarding `COc1cc2c(cc1Nc1ncc(Cl)c(Nc3ccccc3S(=O)(=O)N(C)C)n1)CCN(CC(=O)N1CCCC1)CC2` [Example 1157, 2-{5-Chloro-2-[8-methoxy-3-(2-oxo-2-pyrrolidin-1-yl-ethyl)-2,3,4,5-tetrahydro-1H-benzo[d]azepin-7-ylamino]-pyrimidin-4-ylamino}-N,N-dimethyl-benzenesulfonamide], the values for the IC50 in experiment [1] and in experiment [2] were 1 to 10 µM and below 0.1 µM, respectively.

`COc1cc2c(cc1Nc1ncc(Cl)c(Nc3ccccc3S(=O)(=O)C(C)C)n1)CCN(CC(=O)N1CCCC1)CC2` [Example 1158, 2-(7-{5-Chloro-4-[2-(propane-2-sulfonyl)-phenylamino]-pyrimidin-2-ylamino}-8-methoxy-1,2,4,5-tetrahydro-benzo[d]azepin-3-yl)-1-pyrrolidin-1-yl-ethanone]: the IC50 in experiment [1] was 1 to 10 µM; in experiment [2], below 0.1 µM.

On to `COc1cc2c(cc1Nc1ncc(Cl)c(N[C@H]3[C@@H](C(N)=O)[C@@H]4C=C[C@H]3C4)n1)CCN(CC(=O)N1CCCC1)CC2` [Example 1159, (1S,2S,3R,4R)-3-{5-Chloro-2-[8-methoxy-3-(2-oxo-2-pyrrolidin-1-yl-ethyl)-2,3,4,5-tetrahydro-1H-benzo[d]azepin-7-ylamino]-pyrimidin-4-ylamino}-bicyclo[2.2.1]hept-5-ene-2-carboxylic acid amide], for which the IC50 is above 10 µM in experiment [1] and below 0.1 µM in experiment [2].

Take `COc1cc2c(cc1Nc1ncc(Cl)c(N[C@@H]3CCCC[C@H]3NS(C)(=O)=O)n1)CCN(CC(=O)N1CCCC1)CC2` [Example 1160, N-((1R,2R)-2-{5-Chloro-2-[8-methoxy-3-(2-oxo-2-pyrrolidin-1-yl-ethyl)-2,3,4,5-tetrahydro-1H-benzo[d]azepin-7-ylamino]-pyrimidin-4-ylamino}-cyclohexyl)-methanesulfonamide]: the IC50 in experiment [1] was above 10 µM; in experiment [2], below 0.1 µM.

For the compound `COc1cc2c(cc1Nc1ncc(Cl)c(Nc3ccc(C(N)=O)cc3OC)n1)CCN(CCS(C)(=O)=O)CC2` [Example 1161, 4-{5-Chloro-2-[3-(2-methanesulfonyl-ethyl)-8-methoxy-2,3,4,5-tetrahydro-1H-benzo[d]azepin-7-ylamino]-pyrimidin-4-ylamino}-3-methoxy-benzamide], the half-maximal inhibitory concentration (IC50) was above 10 µM in experiment [1] and below 0.1 µM in experiment [2].

Consider `COc1ccc(Nc2nc(Nc3cc4c(cc3OC)CCN(CC(=O)N(C)C)CC4)ncc2Cl)c(S(=O)(=O)C(C)C)c1` [Example 1162, 2-(7-{5-Chloro-4-[4-methoxy-2-(propane-2-sulfonyl)-phenylamino]-pyrimidin-2-ylamino}-8-methoxy-1,2,4,5-tetrahydro-benzo[d]azepin-3-yl)-N,N-dimethyl-acetamide], for which the IC50 was above 10 µM in experiment [1] and below 0.1 µM in experiment [2].

For the compound `COc1cc2c(cc1Nc1ncc(Cl)c(Nc3ccccc3S(=O)(=O)C(C)C)n1)CCN(CCS(C)(=O)=O)CC2` [Example 1164, 5-Chloro-N*2*-[3-(2-methanesulfonyl-ethyl)-8-methoxy-2,3,4,5-tetrahydro-1H-benzo[d]azepin-7-yl]-N*4*-[2-(propane-2-sulfonyl)-phenyl]-pyrimidine-2,4-diamine], the IC50 in experiment [1] was 1 to 10 µM; in experiment [2] it was below 0.1 µM.

As to `COCCN1CCc2cc(Nc3ncc(Cl)c(Nc4ccccc4S(=O)(=O)N(C)C)n3)c(OC)cc2CC1` [Example 1165, 2-{5-Chloro-2-[8-methoxy-3-(2-methoxy-ethyl)-2,3,4,5-tetrahydro-1H-benzo[d]azepin-7-ylamino]-pyrimidin-4-ylamino}-N,N-dimethyl-benzenesulfonamide], the IC50 was 1 to 10 µM in experiment [1] and below 0.1 µM in experiment [2].

Take `COc1cc2c(cc1Nc1ncc(Cl)c(Nc3ccc(N(C)C)cc3OC)n1)CCN(CC(=O)N(C)C)CC2` [Example 1166, 2-{7-[5-Chloro-4-(4-dimethylamino-2-methoxy-phenylamino)-pyrimidin-2-ylamino]-8-methoxy-1,2,4,5-tetrahydro-benzo[d]azepin-3-yl}-N,N-dimethyl-acetamide]: the figures for the IC50 in experiment [1] and in experiment [2] were above 10 µM and below 0.1 µM, respectively.

For the compound `COc1cc2c(cc1Nc1ncc(Cl)c(Nc3ccc(N(C)C)cc3OC)n1)CCN(CCS(C)(=O)=O)CC2` [Example 1167, 5-Chloro-N*4*-(4-dimethylamino-2-methoxy-phenyl)-N*2*-[3-(2-methanesulfonyl-ethyl)-8-methoxy-2,3,4,5-tetrahydro-1H-benzo[d]azepin-7-yl]-pyrimidine-2,4-diamine], the IC50 in experiment [1] is above 10 µM; in experiment [2], below 0.1 µM.

Turning to `COCCOc1ccc(Nc2nc(Nc3cc4c(cc3OC)CCN(CCS(C)(=O)=O)CC4)ncc2Cl)c(OC)c1` [Example 1168, 5-Chloro-N*2*-[3-(2-methanesulfonyl-ethyl)-8-methoxy-2,3,4,5-tetrahydro-1H-benzo[d]azepin-7-yl]-N*4*-[2-methoxy-4-(2-methoxy-ethoxy)-phenyl]-pyrimidine-2,4-diamine], the IC50 in experiment [1] was above 10 µM; in experiment [2], below 0.1 µM.

For `COc1cc2c(cc1Nc1ncc(Cl)c(Nc3ccccc3S(=O)(=O)N(C)C)n1)CCN(Cc1ncco1)CC2` [Example 1170, 2-[5-Chloro-2-(8-methoxy-3-oxazol-2-ylmethyl-2,3,4,5-tetrahydro-1H-benzo[d]azepin-7-ylamino)-pyrimidin-4-ylamino]-N,N-dimethyl-benzenesulfonamide], the values for the IC50 in experiment [1] and in experiment [2] were 1 to 10 µM and below 0.1 µM, respectively.

For the compound `COc1cc2c(cc1Nc1ncc(Cl)c(Nc3ccccc3S(=O)(=O)N(C)C)n1)CCN(Cc1nccn1C)CC2` [Example 1171, 2-{5-Chloro-2-[8-methoxy-3-(1-methyl-1H-imidazol-2-ylmethyl)-2,3,4,5-tetrahydro-1H-benzo[d]azepin-7-ylamino]-pyrimidin-4-ylamino}-N,N-dimethyl-benzenesulfonamide], the values for the IC50 in experiment [1] and in experiment [2] were 1 to 10 µM and below 0.1 µM, respectively.

For `COc1cc2c(cc1Nc1ncc(Cl)c(Nc3ccc(N(C)C)cc3OC)n1)CCN(Cc1ncco1)CC2` [Example 1172, 5-Chloro-N*4*-(4-dimethylamino-2-methoxy-phenyl)-N*2*-(8-methoxy-3-oxazol-2-ylmethyl-2,3,4,5-tetrahydro-1H-benzo[d]azepin-7-yl)-pyrimidine-2,4-diamine], the IC50 in experiment [1] is above 10 µM; in experiment [2] it was below 0.1 µM.

On to `COc1cc2c(cc1Nc1ncc(Cl)c(Nc3ccc(N(C)C)cc3OC)n1)CCN(Cc1nccn1C)CC2` [Example 1173, 5-Chloro-N*4*-(4-dimethylamino-2-methoxy-phenyl)-N*2*-[8-methoxy-3-(1-methyl-1H-imidazol-2-ylmethyl)-2,3,4,5-tetrahydro-1H-benzo[d]azepin-7-yl]-pyrimidine-2,4-diamine], for which the IC50 is above 10 µM in experiment [1] and below 0.1 µM in experiment [2].

In the case of `COCCOc1ccc(Nc2nc(Nc3cc4c(cc3OC)CCN(Cc3ncco3)CC4)ncc2Cl)c(OC)c1` [Example 1174, 5-Chloro-N*4*-[2-methoxy-4-(2-methoxy-ethoxy)-phenyl]-N*2*-(8-methoxy-3-oxazol-2-ylmethyl-2,3,4,5-tetrahydro-1H-benzo[d]azepin-7-yl)-pyrimidine-2,4-diamine], the IC50 is above 10 µM in experiment [1] and below 0.1 µM in experiment [2].

In the case of `COCCOc1ccc(Nc2nc(Nc3cc4c(cc3OC)CCN(Cc3nccn3C)CC4)ncc2Cl)c(OC)c1` [Example 1175, 5-Chloro-N*4*-[2-methoxy-4-(2-methoxy-ethoxy)-phenyl]-N*2*-[8-methoxy-3-(1-methyl-1H-imidazol-2-ylmethyl)-2,3,4,5-tetrahydro-1H-benzo[d]azepin-7-yl]-pyrimidine-2,4-diamine], the IC50 was above 10 µM in experiment [1] and below 0.1 µM in experiment [2].

Take `CNC(=O)c1ccc(Nc2nc(Nc3cc4c(cc3OC)CCN(CC(=O)N(C)C)CC4)ncc2Cl)c(OC)c1` [Example 1176, 4-[5-Chloro-2-(3-dimethylcarbamoylmethyl-8-methoxy-2,3,4,5-tetrahydro-1H-benzo[d]azepin-7-ylamino)-pyrimidin-4-ylamino]-3-methoxy-N-methyl-benzamide]: the IC50 in experiment [1] is above 10 µM; in experiment [2] it was below 0.1 µM.

For the compound `CNC(=O)c1ccc(Nc2nc(Nc3cc4c(cc3OC)CCN(C(COC)COC)CC4)ncc2Cl)c(OC)c1` [Example 1177, 4-{5-Chloro-2-[8-methoxy-3-(2-methoxy-1-methoxymethyl-ethyl)-2,3,4,5-tetrahydro-1H-benzo[d]azepin-7-ylamino]-pyrimidin-4-ylamino}-3-methoxy-N-methyl-benzamide], the results for the IC50 in experiment [1] and in experiment [2] were above 10 µM and below 0.1 µM, respectively.

On to `COc1cc2c(cc1Nc1ncc(Cl)c(Nc3ccccc3S(=O)(=O)N3CCCC3)n1)CCN(CCS(C)(=O)=O)CC2` [Example 1178, 5-Chloro-N*2*-[3-(2-methanesulfonyl-ethyl)-8-methoxy-2,3,4,5-tetrahydro-1H-benzo[d]azepin-7-yl]-N*4*-[2-(pyrrolidine-1-sulfonyl)-phenyl]-pyrimidine-2,4-diamine], for which the IC50 was 0.1 to 1 µM in experiment [1] and below 0.1 µM in experiment [2].

Usually IC50 stands for the concentration needed to halve the response being measured.
